Measurements: patent US20230265151A1, “GIP/GLP1 CO-AGONIST COMPOUNDS” (priority 2020, published 2023)
Like-named read-outs stand apart in the source and are kept apart here.

Assays:
[1] = target: T1, hGIPR (Homo sapiens, UniProt P48546); assay: Functional cAMP formation (HTRF) in HEK-293 clonal cells expressing hGIPR, 0.1% bovine casein, without or with 1.0% human serum albumin; type: cell-based; conditions: for Emax: read-out: hGIPR Emax, % ± SEM; for EC50: geometric mean
T1 construct: expressed in transfected cells
T1 sequence (P48546 22-466): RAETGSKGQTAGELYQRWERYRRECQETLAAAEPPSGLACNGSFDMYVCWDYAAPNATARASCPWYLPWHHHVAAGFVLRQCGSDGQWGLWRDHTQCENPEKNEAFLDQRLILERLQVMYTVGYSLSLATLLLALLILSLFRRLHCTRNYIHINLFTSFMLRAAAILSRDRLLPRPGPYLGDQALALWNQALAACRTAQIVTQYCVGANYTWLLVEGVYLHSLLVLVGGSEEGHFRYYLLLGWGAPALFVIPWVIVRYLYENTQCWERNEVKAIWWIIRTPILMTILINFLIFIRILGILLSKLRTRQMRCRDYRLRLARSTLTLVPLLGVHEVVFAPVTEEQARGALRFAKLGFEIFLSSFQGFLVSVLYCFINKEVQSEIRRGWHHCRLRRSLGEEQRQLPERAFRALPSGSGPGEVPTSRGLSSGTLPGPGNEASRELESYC
Summary of the method: (§1)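 Cells were stimulated with peptide for 30 min at 37° C, then intracellular cAMP was measured by competitive HTRF (665/620 nm ratio) and converted to nM using a cAMP standard curve. Relative EC50 and Emax came from four-parameter logistic fits of percent maximal response against peptide concentration.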

[2] = target: T2, hGCGR (Homo sapiens, UniProt P47871); assay: Functional cAMP formation (HTRF) in HEK-293 clonal cells expressing hGCGR, 0.1% bovine casein, without or with 1.0% human serum albumin; type: cell-based
T2 construct: expressed in transfected cells
T2 sequence (P47871 26-477): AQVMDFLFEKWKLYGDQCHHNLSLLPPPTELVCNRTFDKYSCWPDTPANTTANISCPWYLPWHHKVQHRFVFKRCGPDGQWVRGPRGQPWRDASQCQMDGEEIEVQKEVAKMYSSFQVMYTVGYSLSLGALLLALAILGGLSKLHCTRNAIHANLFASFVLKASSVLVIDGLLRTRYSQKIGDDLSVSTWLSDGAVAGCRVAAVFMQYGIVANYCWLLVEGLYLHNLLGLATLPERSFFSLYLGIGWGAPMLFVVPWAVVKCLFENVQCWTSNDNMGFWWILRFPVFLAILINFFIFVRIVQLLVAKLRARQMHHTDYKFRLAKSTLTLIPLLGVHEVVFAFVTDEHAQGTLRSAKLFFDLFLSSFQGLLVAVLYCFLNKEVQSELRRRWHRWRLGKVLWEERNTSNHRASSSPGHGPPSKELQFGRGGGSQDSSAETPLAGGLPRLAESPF
Summary of the method: as §1

[3] = target: T3, human Gcg receptor (hGcgR) (Homo sapiens, UniProt P47871); assay: [125I]-Glucagon binding, SPA with membranes of HEK293 cells expressing hGcgR
T3 construct: expressed in transfected cells; crude membranes
T3 sequence (P47871 26-477): as above

[4] = target: hGLP-1R (Homo sapiens, UniProt P43220); assay: Functional cAMP formation (HTRF) in HEK-293 clonal cells expressing hGLP-1R, 0.1% bovine casein, without or with 1.0% human serum albumin; type: cell-based; set-up: expressed in transfected cells; conditions: for Emax: read-out: hGLP-1R Emax, % ± SEM
Chain of hGLP-1R (P43220 24-463): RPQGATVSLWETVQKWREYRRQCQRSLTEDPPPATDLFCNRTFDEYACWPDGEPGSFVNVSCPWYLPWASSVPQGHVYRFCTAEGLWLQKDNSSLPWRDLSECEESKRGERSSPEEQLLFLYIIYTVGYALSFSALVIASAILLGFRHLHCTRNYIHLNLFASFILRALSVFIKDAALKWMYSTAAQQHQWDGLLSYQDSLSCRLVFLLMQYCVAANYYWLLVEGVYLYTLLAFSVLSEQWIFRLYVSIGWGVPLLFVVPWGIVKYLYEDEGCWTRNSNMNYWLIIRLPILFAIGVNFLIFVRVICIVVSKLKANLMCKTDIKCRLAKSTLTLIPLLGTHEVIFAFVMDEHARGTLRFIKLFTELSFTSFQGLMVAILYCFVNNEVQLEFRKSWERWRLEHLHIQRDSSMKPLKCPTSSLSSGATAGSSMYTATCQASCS
Summary of the method: as §1

[5] = target: T4, human GIP receptor (hGIPR) (Homo sapiens, UniProt P48546); assay: [125I]-GIP binding, SPA with membranes of CHO cells expressing hGIPR
T4 construct: expressed in transfected cells; crude membranes
T4 sequence (P48546 22-466): T1 sequence (P48546 22-466)

[6] = human GcgR, geometric mean (SEM, n), read-out: Binding Affinity Ki, nM (SEM, n) hGCGR
[7] = human GIPR, geometric mean (SEM, n), read-out: Binding Affinity Ki, nM (SEM, n) hGIPR
[8] = HEK293, 0.1% bovine casein and 1.0% human serum albumin, 37° C., percent of maximal response to GIP(1-42)NH2
[9] = HEK293, percent of maximal response to GIP(1-42)NH2, 37° C., 0.1% bovine casein, arithmetic mean
[10] = cAMP, incubated at 37° C., 0.1% bovine casein (no human serum albumin), read-out: hGIPR EC50, nM (SEM, n)
[11] = 0.1% bovine casein and 1.0% human serum albumin, 37° C., geometric mean, read-out: hGCGR EC50, nM (SEM, n)
[12] = cAMP, incubated at 37° C., 0.1% bovine casein (no human serum albumin), geometric mean, read-out: hGCGR EC50, nM (SEM, n)
[13] = 0.1% bovine casein and 1.0% human serum albumin, 37° C., geometric mean, read-out: hGLP-1R EC50, nM (SEM, n)

| Structure (SMILES) | Ki [3, 6] [nM] | Ki [5, 7] [nM] | Emax [1, 8] [%] | Emax [1, 9] [%] | EC50 [1, 10] [nM] | EC50 [2, 11] [nM] | EC50 [2, 12] [nM] | EC50 [4, 13] [nM] | also measured |
| --- | --- | --- | --- | --- | --- | --- | --- | --- | --- |
| CC[C@H](C)[C@H](NC(=O)[C@H](CC(C)C)NC(=O)[C@](C)(Cc1ccc(O)cc1)NC(=O)[C@H](CCCCNC(=O)COCCOCCNC(=O)COCCOCCNC(=O)COCCOCCNC(=O)CC[C@H](NC(=O)CCCCCCCCCCCCC(=O)O)C(=O)O)NC(=O)[C@@H](NC(=O)[C@H](Cc1ccccc1)NC(=O)[C@H](CCC(=O)O)NC(=O)C(C)(C)NC(=O)[C@H](CCC(N)=O)NC(=O)[C@H](C)NC(=O)[C@H](CCC(N)=O)NC(=O)[C@H](CCCN)NC(=O)[C@H](CC(=O)O)NC(=O)[C@H](CC(C)C)NC(=O)[C@](C)(CC(C)C)NC(=O)[C@@H](NC(=O)C(C)(C)NC(=O)[C@H](Cc1ccncc1)NC(=O)[C@H](CC(=O)O)NC(=O)[C@H](CO)NC(=O)[C@@H](NC(=O)[C@](C)(Cc1ccccc1F)NC(=O)[C@@H](NC(=O)CNC(=O)[C@H](CCC(=O)O)NC(=O)C(C)(C)NC(=O)[C@@H](N)Cc1ccc(O)cc1)[C@@H](C)O)[C@@H](C)O)[C@@H](C)CC)[C@@H](C)CC)C(=O)N[C@@H](CCCCNC(=O)COCCOCCNC(=O)COCCOCCNC(=O)COCCOCCNC(=O)CC[C@H](NC(=O)CCCCCCCCCCCCC(=O)O)C(=O)O)C(=O)NCC(=O)NCC(=O)N1CCC[C@H]1C(=O)N[C@@H](CO)C(=O)N[C@@H](CO)C(=O)NCC(=O)N[C@@H](C)C(=O)N1CCC[C@H]1C(=O)N1CCC[C@H]1C(=O)N1CCC[C@H]1C(=O)N[C@@H](CO)C(N)=O [Example 460] | > 959 | 0.0528 | – | – | – | – | – | – | Emax ([1]; HEK293, cAMP, 37° C., 0.1% bovine casein and 1.0% human serum albumin, percent of maximal response to GIP(1-42)NH2): 89.5%; EC50 ([1]; cAMP, 37° C., 0.1% bovine casein (no human serum albumin), read-out: hGIPR EC50, nM (SEM, n)): 0.0108 nM; EC50 ([2]; cAMP, 37° C., 0.1% bovine casein (no human serum albumin), geometric mean, read-out: hGCGR EC50, nM (SEM, n)): > 9950 nM; EC50 ([2]; cAMP, 37° C., 0.1% bovine casein and 1.0% human serum albumin, geometric mean (SEM, n), read-out: hGCGR EC50, nM (SEM, n)): > 9950 nM; Emax ([4]; HEK293, cAMP, 37° C., 0.1% bovine casein, percent of maximal response to GLP-1(7-36)NH2, arithmetic mean): 111%; EC50 ([4]; cAMP, 37° C., 0.1% bovine casein (no human serum albumin), geometric mean, read-out: hGLP-1R EC50, nM (SEM, n)): 0.187 nM; EC50 ([4]; cAMP, 37° C., 0.1% bovine casein and 1.0% human serum albumin, geometric mean (SEM, n), read-out: hGLP-1R EC50, nM (SEM, n)): 6.31 nM |
| CC[C@H](C)[C@H](NC(=O)[C@H](CC(C)C)NC(=O)[C@](C)(Cc1ccc(O)cc1)NC(=O)[C@@H](CCC(=O)O)NC(=O)[C@@H](NC(=O)[C@H](Cc1ccccc1)NC(=O)[C@H](CCC(=O)O)NC(=O)C(C)(C)NC(=O)[C@H](CCC(N)=O)NC(=O)[C@H](C)NC(=O)[C@H](CCCCNC(=O)COCCOCCNC(=O)CC[C@H](NC(=O)CCCCCCCCCOc1ccc(C(=O)O)cc1)C(=O)O)NC(=O)[C@H](CCCN)NC(=O)[C@H](CC(=O)O)NC(=O)[C@H](CC(C)C)NC(=O)[C@](C)(CC(C)C)NC(=O)[C@@H](NC(=O)[C@H](CO)NC(=O)[C@H](Cc1ccncc1)NC(=O)[C@H](CC(=O)O)NC(=O)[C@H](CO)NC(=O)[C@@H](NC(=O)[C@](C)(Cc1ccccc1F)NC(=O)[C@@H](NC(=O)CNC(=O)[C@H](CCC(=O)O)NC(=O)C(C)(C)NC(=O)[C@@H](N)Cc1ccc(O)cc1)[C@@H](C)O)[C@@H](C)O)[C@@H](C)CC)[C@@H](C)CC)C(=O)N[C@@H](CCC(=O)O)C(=O)NCC(=O)NCC(=O)N[C@@H](CCCCNC(=O)COCCOCCNC(=O)CC[C@H](NC(=O)CCCCCCCCCOc1ccc(C(=O)O)cc1)C(=O)O)C(=O)N[C@@H](CO)C(=O)N[C@@H](CO)C(=O)NCC(=O)N[C@@H](C)C(=O)N1CCC[C@H]1C(=O)N1CCC[C@H]1C(=O)N1CCC[C@H]1C(=O)N[C@@H](CO)C(N)=O [Example 12] | – | – | – | – | – | – | – | – | EC50 ([1]; hGIPR EC50, nM (SEM, n), 0.1% bovine casein and 1.0% human serum albumin, 37° C.): 0.745 nM; EC50 ([1]; hGIPR EC50, nM (SEM, n), cAMP, incubated at 37° C., 0.1% bovine casein (no human serum albumin)): 0.0127 nM; EC50 ([2]; hGCGR EC50, nM (SEM, n), 0.1% bovine casein and 1.0% human serum albumin, 37° C., geometric mean): > 9950 nM; EC50 ([2]; hGCGR EC50, nM (SEM, n), cAMP, incubated at 37° C., 0.1% bovine casein (no human serum albumin), geometric mean): > 9950 nM; Ki [3]: 213 nM; EC50 ([4]; hGLP-1R EC50, nM (SEM, n), 0.1% bovine casein and 1.0% human serum albumin, 37° C., geometric mean): 20.3 nM; Ki [5]: 0.0575 nM |
| CC[C@H](C)[C@H](NC(=O)[C@H](CC(C)C)NC(=O)[C@](C)(Cc1ccc(O)cc1)NC(=O)[C@@H](CCC(=O)O)NC(=O)[C@@H](NC(=O)[C@H](Cc1cccc(F)c1)NC(=O)[C@H](CCC(=O)O)NC(=O)C(C)(C)NC(=O)[C@H](CCC(N)=O)NC(=O)[C@H](C)NC(=O)[C@H](CCCCNC(=O)COCCOCCNC(=O)COCCOCCNC(=O)CC[C@H](NC(=O)CCCCCCCCCCCCC(=O)O)C(=O)O)NC(=O)[C@H](CCCN)NC(=O)[C@H](CC(=O)O)NC(=O)[C@H](CC(C)C)NC(=O)[C@](C)(CC(C)C)NC(=O)[C@@H](NC(=O)[C@H](CO)NC(=O)[C@H](Cc1ccncc1)NC(=O)[C@H](CC(=O)O)NC(=O)[C@H](CO)NC(=O)[C@@H](NC(=O)[C@](C)(Cc1ccccc1F)NC(=O)[C@@H](NC(=O)CNC(=O)[C@H](CCC(=O)O)NC(=O)C(C)(C)NC(=O)[C@@H](N)Cc1ccc(O)cc1)[C@@H](C)O)[C@@H](C)O)[C@@H](C)CC)[C@@H](C)CC)C(=O)N[C@@H](CCC(=O)O)C(=O)NCC(=O)NCC(=O)N[C@@H](CCCCNC(=O)COCCOCCNC(=O)COCCOCCNC(=O)CC[C@H](NC(=O)CCCCCCCCCCCCC(=O)O)C(=O)O)C(=O)N[C@@H](CO)C(=O)N[C@@H](CO)C(=O)NCC(=O)N[C@@H](C)C(=O)N1CCC[C@H]1C(=O)N1CCC[C@H]1C(=O)N1CCC[C@H]1C(=O)N[C@@H](CO)C(N)=O [Example 64] | > 4780 | 0.161 | 90.5 ± 3.44 | 92.9 ± 3.06 | 0.0158 | > 9950 | > 9950 | 27 | Emax ([4]; HEK293, 0.1% bovine casein and 1.0% human serum albumin, 37° C., percent of maximal response to GLP-1(7-36)NH2): 87.8 ± 0.301%; Emax ([4]; HEK293, percent of maximal response to GLP-1(7-36)NH2, 37° C., 0.1% bovine casein, arithmetic mean): 97.3 ± 4.13%; EC50 ([4]; cAMP, incubated at 37° C., 0.1% bovine casein (no human serum albumin), geometric mean, read-out: hGLP-1R EC50, nM (SEM, n)): 0.557 nM |
| CC[C@H](C)[C@H](NC(=O)[C@H](CC(C)C)NC(=O)[C@](C)(Cc1ccc(O)cc1)NC(=O)[C@@H](CCC(=O)O)NC(=O)[C@@H](NC(=O)[C@H](Cc1ccccc1)NC(=O)[C@H](CCC(=O)O)NC(=O)C(C)(C)NC(=O)[C@H](CCC(N)=O)NC(=O)[C@H](C)NC(=O)[C@H](CCCCNC(=O)[C@@H](N)CCCCNC(=O)COCCOCCNC(=O)COCCOCCNC(=O)CC[C@H](NC(=O)CCCCCCCCCCCCC(=O)O)C(=O)O)NC(=O)[C@H](CCCN)NC(=O)[C@H](CC(=O)O)NC(=O)[C@H](CC(C)C)NC(=O)[C@](C)(CC(C)C)NC(=O)[C@@H](NC(=O)[C@H](CO)NC(=O)[C@H](Cc1ccncc1)NC(=O)[C@H](CC(=O)O)NC(=O)[C@H](CO)NC(=O)[C@@H](NC(=O)[C@](C)(Cc1ccccc1F)NC(=O)[C@@H](NC(=O)CNC(=O)[C@H](CCC(=O)O)NC(=O)C(C)(C)NC(=O)[C@@H](N)Cc1ccc(O)cc1)[C@@H](C)O)[C@@H](C)O)[C@@H](C)CC)[C@@H](C)CC)C(=O)N[C@@H](CCC(=O)O)C(=O)NCC(=O)NCC(=O)N[C@@H](CCCCNC(=O)[C@@H](N)CCCCNC(=O)COCCOCCNC(=O)COCCOCCNC(=O)CC[C@H](NC(=O)CCCCCCCCCCCCC(=O)O)C(=O)O)C(=O)N[C@@H](CO)C(=O)N[C@@H](CO)C(=O)NCC(=O)N[C@@H](C)C(=O)N1CCC[C@H]1C(=O)N1CCC[C@H]1C(=O)N1CCC[C@H]1C(=O)N[C@@H](CO)C(N)=O [Example 37] | > 957 | 0.171 | 88.5 ± 0.188 | 91.2 ± 3.67 | 0.0211 | > 9950 | > 9950 | 17 | EC50 ([1]; 0.1% bovine casein and 1.0% human serum albumin, 37° C., read-out: hGIPR EC50, nM (SEM, n)): 0.306 nM |
